The test system of the assay is TPM3-NTRK1-wt IC50 / primary target (e.g. CD74-ROS1-wt) IC50, Ba/F3 cells. Briefly: Cell assay TRKA selectivity (TRKA potency divided by primary target potency). It is filed as cell-based. The following applies: for TPM3-NTRK1-wt/CD74-ROS1-G2032R: TRKA selectivity ratio: TPM3-NTRK1-wt IC50 / CD74-ROS1-G2032R IC50, Ba/F3 cells; for TPM3-NTRK1-wt/CD74-ROS1-wt: TRKA selectivity ratio: TPM3-NTRK1-wt IC50 / CD74-ROS1-wt IC50, Ba/F3 cells; for TPM3-NTRK1-wt/EML4-ALK-L1196M-G1202R: TRKA selectivity ratio: TPM3-NTRK1-wt IC50 / EML4-ALK-L1196M-G1202R IC50, Ba/F3 cells; for TPM3-NTRK1-wt/EML4-ALK-wt: TRKA selectivity ratio: TPM3-NTRK1-wt IC50 / EML4-ALK-wt IC50, Ba/F3 cells. An outline of the steps:
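IL-3-independent Ba/F3 lines stably expressing TPM3-TRKA or the primary fusion (e.g. CD74-ROS1 wt) were exposed to 3-fold compound dilutions for 72 h. Viability was read by CellTiter-Glo luminescence, with IC50 from four-parameter logistic fit. Selectivity is TPM3-NTRK1 IC50 divided by primary-target IC50, binned A (>30-fold) to D (<1).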

With `CCn1ncc2c1-c1cnc(N)c(c1)OC(C)c1cc(F)ccc1-c1cnccc1C2` (stereo not shown) [Example 35, 3-ethyl-17-fluoro-20-methyl-21-oxa-3,4,11,24-tetraazapentacyclo[20.3.1.0^2,^6.0^8,^13.0^14,^19]hexacosa-1(25),2(6),4,8(13),9,11,14,16,18,22(26),23-undecaen-23-amine], the TPM3-NTRK1-wt/CD74-ROS1-G2032R result was “A (bin A for very high selectivity, ratio>30-fold)”; the TPM3-NTRK1-wt/CD74-ROS1-wt result is “A (bin A for very high selectivity, ratio>30-fold)”; the TPM3-NTRK1-wt/EML4-ALK-L1196M-G1202R entry is reported as “C (bin C for moderate selectivity, ratio≥1)”; the TPM3-NTRK1-wt/EML4-ALK-wt entry is listed as “A (bin A for very high selectivity, ratio>30-fold)”.

For `CCn1ncc2c1-c1cnc(N)c(c1)OC(C)c1cc(F)ccc1-c1ccncc1C2` (stereo not shown) [Example 36, 3-ethyl-17-fluoro-20-methyl-21-oxa-3,4,10,24-tetraazapentacyclo[20.3.1.0^2,^6.0^8,^13.0^14,^19]hexacosa-1(25),2(6),4,8(13),9,11,14,16,18,22(26),23-undecaen-23-amine], the TPM3-NTRK1-wt/CD74-ROS1-G2032R result is reported as “A (bin A for very high selectivity, ratio>30-fold)”; the TPM3-NTRK1-wt/CD74-ROS1-wt result is listed as “A (bin A for very high selectivity, ratio>30-fold)”; the TPM3-NTRK1-wt/EML4-ALK-L1196M-G1202R entry is “C (bin C for moderate selectivity, ratio≥1)”; the TPM3-NTRK1-wt/EML4-ALK-wt entry was “A (bin A for very high selectivity, ratio>30-fold)”.

As to `CC1Oc2cc(cnc2N)-c2c(cnn2C2CCC2)Cn2ccnc2-c2ccc(F)cc21` (stereo not shown) [Example 37, 3-cyclobutyl-16-fluoro-19-methyl-20-oxa-3,4,8,11,23-pentaazapentacyclo[19.3.1.0^2,^6.0^8,^12.0^13,^18]pentacosa-1(24),2(6),4,9,11,13,15,17,21(25),22-decaen-22-amine], the TPM3-NTRK1-wt/CD74-ROS1-G2032R result was “A (bin A for very high selectivity, ratio>30-fold)”; the TPM3-NTRK1-wt/CD74-ROS1-wt entry was “A (bin A for very high selectivity, ratio>30-fold)”; the TPM3-NTRK1-wt/EML4-ALK-L1196M-G1202R entry is “A (bin A for very high selectivity, ratio>30-fold)”; the TPM3-NTRK1-wt/EML4-ALK-wt result was “A (bin A for very high selectivity, ratio>30-fold)”.

On to `CCn1ncc2c1-c1cnc(N)c(c1)OC(C)c1cc(F)ccc1-n1cncc1C2` (stereo not shown) [Example 38, 3-ethyl-16-fluoro-19-methyl-20-oxa-3,4,10,12,23-pentaazapentacyclo[19.3.1.0^2,^6.0^8,^12.0^13,^18]pentacosa-1(24),2(6),4,8,10,13,15,17,21(25),22-decaen-22-amine], for which the TPM3-NTRK1-wt/CD74-ROS1-G2032R result is recorded as “A (bin A for very high selectivity, ratio>30-fold)”; the TPM3-NTRK1-wt/CD74-ROS1-wt entry is reported as “A (bin A for very high selectivity, ratio>30-fold)”; the TPM3-NTRK1-wt/EML4-ALK-L1196M-G1202R entry is “C (bin C for moderate selectivity, ratio≥1)”; the TPM3-NTRK1-wt/EML4-ALK-wt result was “B (bin B for high selectivity, ratio>10-fold)”.

As to `CC1Oc2cc(cnc2N)-c2c(cnn2CCF)Cn2ccnc2-c2ccc(F)cc21` (stereo not shown) [Example 39, 16-fluoro-3-(2-fluoroethyl)-19-methyl-20-oxa-3,4,8,11,23-pentaazapentacyclo[19.3.1.0^2,^6.0^8,^12.0^13,^18]pentacosa-1(24),2(6),4,9,11,13,15,17,21(25),22-decaen-22-amine], the TPM3-NTRK1-wt/CD74-ROS1-G2032R result is listed as “A (bin A for very high selectivity, ratio>30-fold)”; the TPM3-NTRK1-wt/CD74-ROS1-wt result is listed as “A (bin A for very high selectivity, ratio>30-fold)”; the TPM3-NTRK1-wt/EML4-ALK-L1196M-G1202R entry is “C (bin C for moderate selectivity, ratio≥1)”; the TPM3-NTRK1-wt/EML4-ALK-wt entry is on record as “A (bin A for very high selectivity, ratio>30-fold)”.

Regarding `CC1Oc2cc(cnc2N)-c2c(cnn2CC(F)F)Cn2ccnc2-c2ccc(F)cc21` (stereo not shown) [Example 40, 3-(2,2-difluoroethyl)-16-fluoro-19-methyl-20-oxa-3,4,8,11,23-pentaazapentacyclo[19.3.1.0^2,^6.0^8,^12.0^13,^18]pentacosa-1(24),2(6),4,9,11,13,15,17,21(25),22-decaen-22-amine], the TPM3-NTRK1-wt/CD74-ROS1-G2032R result was “A (bin A for very high selectivity, ratio>30-fold)”; the TPM3-NTRK1-wt/CD74-ROS1-wt entry is “A (bin A for very high selectivity, ratio>30-fold)”; the TPM3-NTRK1-wt/EML4-ALK-L1196M-G1202R entry is given as “A (bin A for very high selectivity, ratio>30-fold)”; the TPM3-NTRK1-wt/EML4-ALK-wt result is recorded as “A (bin A for very high selectivity, ratio>30-fold)”.

In the case of `CCn1ncc2c1-c1cnc(N)c(c1)OCc1cc(F)ccc1-n1nccc1C2` [Example 41, 3-ethyl-16-fluoro-20-oxa-3,4,11,12,23-pentaazapentacyclo[19.3.1.0^2,^6.0^8,^12.0^13,^18]pentacosa-1(24),2(6),4,8,10,13,15,17,21(25),22-decaen-22-amine], the TPM3-NTRK1-wt/CD74-ROS1-G2032R entry was “A (bin A for very high selectivity, ratio>30-fold)”; the TPM3-NTRK1-wt/CD74-ROS1-wt result is reported as “A (bin A for very high selectivity, ratio>30-fold)”; the TPM3-NTRK1-wt/EML4-ALK-L1196M-G1202R result was “B (bin B for high selectivity, ratio>10-fold)”; the TPM3-NTRK1-wt/EML4-ALK-wt entry was “A (bin A for very high selectivity, ratio>30-fold)”.

Regarding `CCn1ncc2c1-c1cnc(N)c(c1)OC(C)c1cc(F)ccc1-c1ncncc1C2` (stereo not shown) [Example 42, 3-ethyl-17-fluoro-20-methyl-21-oxa-3,4,10,12,24-pentaazapentacyclo[20.3.1.0^2,^6.0^8,^13.0^14,^19]hexacosa-1(25),2(6),4,8(13),9,11,14,16,18,22(26),23-undecaen-23-amine], the TPM3-NTRK1-wt/CD74-ROS1-G2032R entry is “A (bin A for very high selectivity, ratio>30-fold)”; the TPM3-NTRK1-wt/CD74-ROS1-wt entry is given as “A (bin A for very high selectivity, ratio>30-fold)”; the TPM3-NTRK1-wt/EML4-ALK-L1196M-G1202R entry is on record as “B (bin B for high selectivity, ratio>10-fold)”; the TPM3-NTRK1-wt/EML4-ALK-wt entry is given as “A (bin A for very high selectivity, ratio>30-fold)”.

As for `CCn1ncc2c1-c1cnc(N)c(c1)O[C@H](C)c1cc(F)ccc1-n1nncc1C2` [Example 43, (19R)-3-ethyl-16-fluoro-19-methyl-20-oxa-3,4,10,11,12,23-hexaazapentacyclo[19.3.1.0^2,^6.0^8,^12.0^13,^18]pentacosa-1(24),2(6),4,8,10,13,15,17,21(25),22-decaen-22-amine], the TPM3-NTRK1-wt/CD74-ROS1-G2032R entry was “A (bin A for very high selectivity, ratio>30-fold)”; the TPM3-NTRK1-wt/CD74-ROS1-wt entry was “A (bin A for very high selectivity, ratio>30-fold)”; the TPM3-NTRK1-wt/EML4-ALK-L1196M-G1202R entry is reported as “C (bin C for moderate selectivity, ratio≥1)”; the TPM3-NTRK1-wt/EML4-ALK-wt entry is “B (bin B for high selectivity, ratio>10-fold)”.

In the case of `CC1Oc2cc(cnc2N)-c2c(cnn2C(F)F)Cn2ccnc2-c2ccc(F)cc21` (stereo not shown) [Example 44, 3-(difluoromethyl)-16-fluoro-19-methyl-20-oxa-3,4,8,11,23-pentaazapentacyclo[19.3.1.0^2,^6.0^8,^12.0^13,^18]pentacosa-1(24),2(6),4,9,11,13,15,17,21(25),22-decaen-22-amine], the TPM3-NTRK1-wt/CD74-ROS1-G2032R entry is recorded as “A (bin A for very high selectivity, ratio>30-fold)”; the TPM3-NTRK1-wt/CD74-ROS1-wt entry is “A (bin A for very high selectivity, ratio>30-fold)”; the TPM3-NTRK1-wt/EML4-ALK-L1196M-G1202R entry is listed as “C (bin C for moderate selectivity, ratio≥1)”; the TPM3-NTRK1-wt/EML4-ALK-wt entry is “A (bin A for very high selectivity, ratio>30-fold)”.

In the case of `CCn1ncc2c1-c1cnc(N)c(c1)O[C@H](C)c1cc(F)ccc1-c1nc(C)cn1C2` [Example 45, (19R)-3-ethyl-16-fluoro-10,19-dimethyl-20-oxa-3,4,8,11,23-pentaazapentacyclo[19.3.1.0^2,^6.0^8,^12.0^13,^18]pentacosa-1(24),2(6),4,9,11,13,15,17,21(25),22-decaen-22-amine], the TPM3-NTRK1-wt/CD74-ROS1-G2032R result is listed as “A (bin A for very high selectivity, ratio>30-fold)”; the TPM3-NTRK1-wt/CD74-ROS1-wt entry is reported as “A (bin A for very high selectivity, ratio>30-fold)”; the TPM3-NTRK1-wt/EML4-ALK-L1196M-G1202R result is reported as “B (bin B for high selectivity, ratio>10-fold)”; the TPM3-NTRK1-wt/EML4-ALK-wt entry was “A (bin A for very high selectivity, ratio>30-fold)”.

Turning to `CCn1ncc2c1-c1cnc(N)c(c1)O[C@H](C)c1cc(F)ccc1-n1ncc(F)c1C2` [Example 46, (19R)-3-ethyl-9,16-difluoro-19-methyl-20-oxa-3,4,11,12,23-pentaazapentacyclo[19.3.1.0^2,^6.0^8,^12.0^13,^18]pentacosa-1(24),2(6),4,8,10,13,15,17,21(25),22-decaen-22-amine], the TPM3-NTRK1-wt/CD74-ROS1-G2032R entry is given as “A (bin A for very high selectivity, ratio>30-fold)”; the TPM3-NTRK1-wt/CD74-ROS1-wt result is given as “A (bin A for very high selectivity, ratio>30-fold)”; the TPM3-NTRK1-wt/EML4-ALK-L1196M-G1202R entry was “C (bin C for moderate selectivity, ratio≥1)”; the TPM3-NTRK1-wt/EML4-ALK-wt result was “A (bin A for very high selectivity, ratio>30-fold)”.

Take `CCn1ncc2c1-c1cnc(N)c(c1)O[C@H](C)c1cc(F)ccc1-n1ncc(C#N)c1C2` [Example 47, (19R)-22-amino-3-ethyl-16-fluoro-19-methyl-20-oxa-3,4,11,12,23-pentaazapentacyclo[19.3.1.0^2,^6.0^8,^12.0^13,^18]pentacosa-1(24),2(6),4,8,10,13,15,17,21(25),22-decaene-9-carbonitrile]: the TPM3-NTRK1-wt/CD74-ROS1-G2032R result was “A (bin A for very high selectivity, ratio>30-fold)”; the TPM3-NTRK1-wt/CD74-ROS1-wt entry was “A (bin A for very high selectivity, ratio>30-fold)”; the TPM3-NTRK1-wt/EML4-ALK-L1196M-G1202R entry is listed as “C (bin C for moderate selectivity, ratio≥1)”; the TPM3-NTRK1-wt/EML4-ALK-wt entry was “B (bin B for high selectivity, ratio>10-fold)”.

Values taken from patent US11667649B2, “Heteroaromatic macrocyclic ether chemotherapeutic agents” (Nuvalent, Inc., priority 2020, dated 2023).
